We go through 20 compounds from patent US5639775A, “4-[4'-piperodinyl or 3'-pirrolidinyl] substituted imidazoles as H3 -receptor antagonists and therapeutic uses thereof” (The University of Toledo, priority 1994, dated 1997).

Like-named read-outs stand apart in the source and are kept apart here.

One series concerns male albino CF-1 mice. Put plainly: behavioral effects: sleep induced by (R)α-methylhistamine in mice. It counts as in vivo. The procedure: The overall strategy to show central nervous system antagonist activity was to challenge effects of the agonist (R)α-methylhistamine. Therefore, the first objective was to establish a dose response curve for behavioral effects of (R)α-methylhistamine. […] Saline or (R)α-methylhistamine in saline was injected i.p. in a volume≤0.4 ml. […] Animals were scored for the presence (1) or absence (0) of the behavior and the results were reported as the accumulated score for a 30 minute period (maximum score=9).
To assess the effects of antagonists, they were administered with the (R)α-methylhistamine in saline.

Series [1] has as its system Glycine. Put plainly: NOVASCREEN receptor selectivity assay (inhibitory amino acids). The class given is binding. The note with it: 10^-5 M. From the text:
(§1) Bolded values represent inhibition of fifty percent or greater.

Series [2] concerns Glycine. Put plainly: NOVASCREEN receptor selectivity assay (excitatory amino acids). It counts as binding. The note with it: 10^-5 M.
Description: as §1

A further series has as its system Calcium. Put plainly: NOVASCREEN receptor selectivity assay (channel proteins, Nifedipine reference). The class given is binding. The note with it: 10^-5 M.
Description: as §1

Series [3] relates to H3 receptors in the cortex. Put plainly: blood-brain barrier penetration by ex vivo binding of [3H]-Nα-methylhistamine to cortical homogenate of injected rats. It counts as in vivo, rat. The procedure:
Blood-brain barrier penetration in rats was assessed by an ex vivo binding procedure. Young adult male Long-Evans rats were injected i.p. with saline or H3 antagonists in saline. At various times after injection animals were sacrificed, the cortex was removed, homogenized in 50 mM Na/K-phosphate buffer, pH 7.4, and the binding of 1 nM [^3 H]-N^[…] -methylhistamine was measured using 400 μg protein of the homogenate. Nonspecific binding was accounted for by the inclusion of excess thioperamide in some samples. Under these conditions, the binding was approximately 90% specific.

Series [4] is classed as binding. Conditions: 10^-5 M; w-Conotoxin reference.
Series [5] can be described thus: toxicity observed in all testing to date. The class given is in vivo. The note with it: even at high doses.
The next series concerns the target T1, histamine H3 receptor (Rattus norvegicus, UniProt Q9QYN8).
T1 construct: from tissue
Put plainly: inhibition of binding of [3H]-N-alpha-methylhistamine to rat brain membranes. Conditions: for IC50: rat brain membranes, 3HNα-methylhistamine as radioligand. Here is the method:
A series of compounds were prepared and tested for their histamine H3 receptor antagonist activity. The antagonist activity of the compounds was detected by observing inhibition of (^3 H)-N-(alpha)methylhistamine activity on rat brain membranes.
The various compounds were tested for the ability to bind to the histamine H3 receptor. A binding assay in a rat brain membrane preparation, based on inhibition of binding of [^3 H]-N-alpha-methylhistamine using excess unlabeled alpha-methylhistamine to account for nonspecifc binding, was developed.

Another series has as its target Kainate. Conditions: reference compound; cited from earlier work.
Series [6] deals with Glycine. The note with it: read-out: Reference Ki; reference compound; inhibitory; cited from earlier work.
The test system of the next series is rats. Conditions: cited from earlier work.
A further series concerns dogs. The note with it: high dose, repeated dose; cited from earlier work.
Setting [7] is: 2, 5, and 10 mg/kg i.p., 15 min after injection.

T1 sequence (Q9QYN8 whole entry): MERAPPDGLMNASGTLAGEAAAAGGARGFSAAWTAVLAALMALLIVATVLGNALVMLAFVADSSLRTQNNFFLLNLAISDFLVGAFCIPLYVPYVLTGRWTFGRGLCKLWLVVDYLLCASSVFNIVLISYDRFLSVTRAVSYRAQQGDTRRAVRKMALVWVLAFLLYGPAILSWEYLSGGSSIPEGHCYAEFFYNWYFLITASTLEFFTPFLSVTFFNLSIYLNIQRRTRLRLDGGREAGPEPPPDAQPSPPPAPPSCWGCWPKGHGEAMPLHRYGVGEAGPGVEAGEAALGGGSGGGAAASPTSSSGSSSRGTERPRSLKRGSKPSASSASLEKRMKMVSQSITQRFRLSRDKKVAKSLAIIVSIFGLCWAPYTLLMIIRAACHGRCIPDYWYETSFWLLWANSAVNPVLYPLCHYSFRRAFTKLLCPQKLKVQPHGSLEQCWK

As for `C[C@@H](N)Cc1c[nH]cn1` [(R)α-methylhistamine, reference compound], the effect on sleeping result in the series on male albino CF-1 mice (i.p., one hour after injection, also evident at 30 minutes) is listed as “dose-dependent (range of 15 to 35 mg/kg) increase in sleeping”.
As for `O=C(CCCCC1CCCCC1)N1CCC(c2c[nH]cn2)CC1` [Compound 1, 4-(1-Cyclohexylvaleroyl-4-Piperidyl) 1H-Imidazole], the “Initial Percent Inhibition (Average; N = 2)” value stood at 17.4% in the series on Glycine [1], 1.8% with Glycine [2], 8.1% with Calcium and 1.9% in [4]. Also, the “penetration of the blood-brain barrier” value in [3] (50 and 70 mg/kg i.p., one hour after injection) is reported as “penetrates the blood-brain barrier”. The “penetration of the blood-brain barrier compared with thioperamide” value in series [3] (taking into account the difference in affinity) was “at least as well as thioperamide”. Further, in the series with male albino CF-1 mice (25 mg/kg (R)α-methylhistamine), the “effect on sleep induced by R(-)-α-methylhistamine” value is on record as “inhibited the soporific effect”. In addition, the “effectiveness as an H3-receptor antagonist in vivo” value in the series on male albino CF-1 mice (in vivo assays) is given as “effective as an H3 -receptor antagonist”. In addition, the toxicity observed result in series [5] is on record as “no toxicity”.
As usually defined, the IC50 is the concentration needed to halve the response being measured. Consider `O=C(Cc1ccccc1)N1CCC(c2c[nH]cn2)CC1` [Compound 4], for which, on histamine H3 receptor (Table I first part, read-out: IC50), the IC50 amounted to 1400 ± 437 nM.
As for `O=C(CC12CC3CC(CC(C3)C1)C2)N1CCC(c2cnc[nH]2)CC1` [Compound 8], the 50% inhibitory concentration (IC50) result at histamine H3 receptor (Table I second part) is “inactive”.
Still for that read-out and setting: for `O=C(C(C1CCCCC1)C1CCCCC1)N1CCC(c2cnc[nH]2)CC1` [Compound 9] the value was “inactive”.
On the same count and under the same terms, the entry for `CC(C)(C)C(=O)N1CCC(c2c[nH]cn2)CC1` [Compound 14] is “inactive”.
For `O=C(C1CCCCC1)N1CCC(c2c[nH]cn2)CC1` [Compound 41], the IC50 result on histamine H3 receptor (Table I first part) was “inactive”.
Consider `Cn1cnc(C2CCN(C(=O)c3ccccc3)CC2)c1` [Compound 42], for which the IC50 entry at histamine H3 receptor (Table I first part) was “inactive”.
As for `O=C(c1ccccc1)N1CCC(c2cn(C(=O)c3ccccc3)cn2)CC1` [Compound 43], on histamine H3 receptor (Table I first part), the concentration for half-maximal inhibition (IC50) entry is “inactive”.
Still for that read-out and setting: for `CC(C)(C)C(=O)N1CCC(c2cn(C(=O)C(C)(C)C)cn2)CC1` [Compound 44] the value was “inactive”.
With `CC(C)(C)OC(=O)N1CCC(c2cn(C(=O)OC(C)(C)C)cn2)CC1` [Compound 45], the IC50 entry on histamine H3 receptor (Table I first part) was “inactive”.
Same read-out and setting: for `O=C(c1ccccc1)N1CCC(c2cn(Cc3ccccc3)cn2)CC1` [Compound 46] the value was “inactive”.
For the compound `N#CN=C(Oc1ccccc1)N1CCC(c2c[nH]cn2)CC1` [Compound 47], the “binding to the H3-receptor (in words)” value at histamine H3 receptor was “ineffective”.
Turning to `N#CN=C(NC1CCCCC1)N1CCC(c2c[nH]cn2)CC1` [Compound 48], the “binding to the H3-receptor (in words)” value at histamine H3 receptor is “ineffective”. In addition, the IC50 result on histamine H3 receptor (Table I first part) is “inactive”.
On to `N#CN=C(Nc1ccc(-c2c[nH]cn2)cc1)NC1CCCCC1` [Compound 50], for which the “binding to the H3-receptor (in words)” value on histamine H3 receptor is given as “ineffective”. For the same compound, on histamine H3 receptor (Table I second part), the IC50 entry was “inactive”.
In general, Ki refers to a measure of affinity in units of concentration, obtained from inhibition or displacement. As for `C=C(C)[C@H]1CN[C@H](C(=O)O)[C@H]1CC(=O)O` [Kainic Acid], the Ki at Kainate is 24.9 nM.
Consider `O=C1C[C@@H]2OCC=C3CN4CC[C@]56c7ccccc7N1[C@H]5[C@H]2[C@H]3C[C@H]46` [Strychinine Nitrate], for which the Ki on Glycine [6] is 33.5 nM.
With `S=C(NC1CCCCC1)N1CCC(c2cnc[nH]2)CC1` [Thioperamide, reference compound], the “dose needed in vivo to inhibit histamine release from the brain” value in the series on rats is listed as “relatively high doses are required”. In addition, in series [3] (setting [7]), the “binding of [3H]-Nα-methylhistamine to H3 receptors in the cortex” value is “decreased the binding” and the “penetration of the blood-brain barrier” value is on record as “able to penetrate the blood-brain barrier”. In addition, in the series with male albino CF-1 mice (30 mg/kg (R)α-methylhistamine), the “effect on sleep induced by R(-)-α-methylhistamine” value is reported as “inhibit the soporific effect”. Besides, in the series with male albino CF-1 mice (in the absence of the α-methylhistamine H3 receptor agonist), the “behavior with antagonist alone” value was “very active, exhibiting normal behaviors”.
With `O=C(CCCCC1CCCCC1)N1CCC(c2c[nH]cn2)CC1` [compound 2016], the “effect on soporific effect of R(-)-alphamethylhistamine” value with male albino CF-1 mice (mice, both drugs administered peripherally) was “reverses the soporific effect”.
Regarding `C/N=C(\S)NCCSCc1[nH]cnc1C` [metiamide], in the series on dogs, the “proportion of dogs that died acutely with pulmonary edema and pleural effusion” value is less than 10%.
